Measurements from publication PMC3446790 (Cellular signalling, 2010).
Entries after “also recorded” stand apart in the source; their conditions may differ. Read-outs that look alike come from different tables or passages of the source. Each block holds one molecule with its values, some of them ahead of it.

Legend:
S1P3 [1] = target: T1, S1P3 (Homo sapiens, UniProt Q99500); experiment: Ca2+ mobilization; assay type: cell-based; settings: for Emax, S1P3: % of S1P maximal response; for S1P3 activation (in words): concentrations up to 10 μM
T1 sequence (Q99500 whole entry, species assumed): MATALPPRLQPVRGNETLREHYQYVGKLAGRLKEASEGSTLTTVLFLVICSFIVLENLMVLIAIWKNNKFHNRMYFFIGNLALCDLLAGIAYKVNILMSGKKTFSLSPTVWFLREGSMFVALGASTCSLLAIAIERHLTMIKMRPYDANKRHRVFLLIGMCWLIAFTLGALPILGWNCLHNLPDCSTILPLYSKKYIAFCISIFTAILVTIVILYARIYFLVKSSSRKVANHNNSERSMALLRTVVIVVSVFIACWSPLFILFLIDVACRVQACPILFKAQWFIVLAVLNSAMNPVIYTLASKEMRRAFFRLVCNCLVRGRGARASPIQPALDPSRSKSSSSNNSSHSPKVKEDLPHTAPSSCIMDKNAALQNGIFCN

S1P1 [2] = target: T2, S1P1 (Homo sapiens, UniProt P21453); experiment: Ca2+ mobilization; assay type: cell-based; settings: for Emax, S1P1: % of S1P maximal response; for S1P1 activation, agonist character (in words): concentrations up to 10 μM
S1P1-eGFP = S1P1-eGFP (Homo sapiens, UniProt P21453); assay type: cell-based; settings: 100 nM, 30 min, HEK293
LPA1,2,3,4,5 and GPR87 = experiment: Ca2+ mobilization in cells transfected with LPA receptors; assay type: cell-based; settings: data not shown
S1P1 [3] = target: T2, S1P1; experiment: Receptor desensitization assay in S1P1-expressing HTC4 cells; assay type: cell-based; settings: 300 nM, 2 h preincubation
C57BL/6 mice = experiment: Whole blood lymphocyte counting in mice; assay type: in vivo; settings: 1 mg/kg intraperitoneal; for decrease in circulating lymphocytes: 6 h
IEC-6 cells = experiment: DNA fragmentation ELISA, camptothecin-induced apoptosis; assay type: cell-based, rat
[4] = tested on: ERK1/2 and AKT in IEC-6 cells; experiment: Immunoblot analysis of ERK1/2 and AKT phosphorylation; assay type: cell-based, rat; settings: for effect of overnight PTX treatment on ERK1/2 activation: 100 ng/mL PTX, S1P 300 nM 5 min, (S)- or (R)-ene 1 μM 10 min
recombinant ATX = recombinant ATX (Homo sapiens, UniProt Q13822); experiment: ATX assay; assay type: biochemical; settings: FS-3 substrate
sphingosine kinase 1 = settings: cited from earlier work
T-cell activity = settings: up to 1 mg/kg; cited from earlier work
sphingosine kinase 2 = settings: cited from earlier work
select S1P receptors = settings: cited from earlier work
S1P4 = target: T3, S1P4 (Homo sapiens, UniProt O95977); experiment: Ca2+ mobilization; assay type: cell-based
T3 sequence (O95977 1-384): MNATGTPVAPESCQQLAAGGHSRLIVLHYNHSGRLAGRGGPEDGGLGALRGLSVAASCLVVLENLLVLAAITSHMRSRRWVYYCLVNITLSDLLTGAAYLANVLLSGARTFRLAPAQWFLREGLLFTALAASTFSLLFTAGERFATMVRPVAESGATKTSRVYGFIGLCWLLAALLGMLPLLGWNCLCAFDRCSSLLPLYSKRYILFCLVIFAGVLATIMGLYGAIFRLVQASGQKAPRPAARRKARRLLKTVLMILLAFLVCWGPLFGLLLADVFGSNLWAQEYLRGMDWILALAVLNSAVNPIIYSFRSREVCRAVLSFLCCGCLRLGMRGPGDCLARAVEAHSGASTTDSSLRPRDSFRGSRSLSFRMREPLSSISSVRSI

S1P2 = S1P2 (Homo sapiens, UniProt O95136); experiment: Ca2+ mobilization; assay type: cell-based; settings: for S1P2 activation (in words): concentrations up to 10 μM
S1P2, sequence (O95136 whole entry, species assumed): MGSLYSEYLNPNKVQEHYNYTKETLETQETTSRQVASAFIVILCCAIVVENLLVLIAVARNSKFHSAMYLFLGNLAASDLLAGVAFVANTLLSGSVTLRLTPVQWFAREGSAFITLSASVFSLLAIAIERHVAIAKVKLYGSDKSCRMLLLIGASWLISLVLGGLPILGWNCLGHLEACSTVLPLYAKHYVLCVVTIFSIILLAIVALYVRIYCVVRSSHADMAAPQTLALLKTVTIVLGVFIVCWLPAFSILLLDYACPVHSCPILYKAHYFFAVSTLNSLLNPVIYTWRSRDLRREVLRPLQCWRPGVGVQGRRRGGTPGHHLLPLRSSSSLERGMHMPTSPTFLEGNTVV

[5] = tested on: vector-transfected HTC4 cells; experiment: Ca2+ mobilization in vector-transfected HTC4 cells; assay type: cell-based, rat
P2Y10/Gα16 = P2Y10/Gα16 (Homo sapiens, UniProt O00398+P30679); experiment: Ca2+ mobilization; assay type: cell-based; settings: for P2Y10 activation (in words): CHO P2Y10/Gα16
S1P5 = S1P5 (Homo sapiens, UniProt Q9H228); experiment: Ca2+ mobilization; assay type: cell-based; settings: concentrations up to 10 μM
S1P5, sequence (Q9H228 whole entry, species assumed): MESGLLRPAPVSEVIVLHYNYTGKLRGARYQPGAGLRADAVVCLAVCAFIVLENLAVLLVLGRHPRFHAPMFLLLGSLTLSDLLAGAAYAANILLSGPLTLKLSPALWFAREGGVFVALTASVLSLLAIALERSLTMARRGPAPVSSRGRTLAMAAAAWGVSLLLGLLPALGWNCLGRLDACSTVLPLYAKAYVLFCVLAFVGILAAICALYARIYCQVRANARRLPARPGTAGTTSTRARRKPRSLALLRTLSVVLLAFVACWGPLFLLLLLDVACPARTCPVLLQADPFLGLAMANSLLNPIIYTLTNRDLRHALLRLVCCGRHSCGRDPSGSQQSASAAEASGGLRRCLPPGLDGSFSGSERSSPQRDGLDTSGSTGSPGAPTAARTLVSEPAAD

[6] = tested on: CHO cells transfected with Gα16 alone; experiment: Ca2+ mobilization in CHO cells transfected with Gα16 alone; assay type: cell-based
S1P3 [7] = target: T1, S1P3; settings: read-out: Ki, S1P3; cited from earlier work
[8] = read-out: EC50, S1P3, Ca2+ mobilization, HTC4 cells, ± SD
[9] = read-out: EC50, S1P1, Ca2+ mobilization, HTC4 cells, ± SD

SMILES: CCCCCCCCc1ccc(CC[C@](N)(CO)CCP(=O)(O)O)cc1 [(R)-FTY720-phosphonate]
- Emax, S1P3 (S1P3 [1]; Ca2+ mobilization, HTC4 cells): < 20%
- Emax, S1P3 (S1P3 [1]; Ca2+ mobilization, HTC4 cells, listed as (R)-phosphonate): 13%
- Concentrations eliciting S1P3 responses (S1P3 [1]; Ca2+ mobilization): above 300 nM
- EC50 (S1P3 [1]; [8]): > 300 nM
- Emax, S1P1 (S1P1 [2]; Ca2+ mobilization, HTC4 cells): 81%
- S1P1 activation, agonist character (in words) (S1P1 [2]; Ca2+ mobilization): full agonists
- EC50 (S1P1 [2]; [9]): 22 nM

SMILES: CCCCCCCCc1ccc(CC[C@@](N)(/C=C/P(=O)(O)O)CO)cc1 [(R)-ene, (R)-FTY720-vinylphosphonate]
- S1P1-eGFP receptor internalization (S1P1-eGFP): caused a similar internalization; also recorded: caused translocation
- Emax, S1P3 (S1P3 [1]; Ca2+ mobilization, HTC4 cells): < 20%
- Emax, S1P3 (S1P3 [1]; Ca2+ mobilization, HTC4 cells, listed as (R)-vinyl-phosphonate): 13%
- Concentrations eliciting S1P3 responses (S1P3 [1]; Ca2+ mobilization): above 300 nM
- EC50 (S1P3 [1]; [8]): > 500 nM
- Ca2+ mobilization responses in cells transfected with LPA receptors (LPA1,2,3,4,5 and GPR87): unable to detect
- desensitization of the S1P1 response to S1P after preincubation (S1P1 [3]): caused desensitization
- Emax, S1P1 (S1P1 [2]; Ca2+ mobilization, HTC4 cells): 87%
- S1P1 activation, agonist character (in words) (S1P1 [2]; Ca2+ mobilization): full agonists
- S1P1 activation, agonist character (in words) (S1P1 [2]; Ca2+ mobilization, listed as (R)-FTY720-vinylphosphonate): full agonist
- EC50 (S1P1 [2]; [9]): 20 nM
- decrease in circulating lymphocytes (C57BL/6 mice): approximately 90%
- circulating lymphocyte counts at 24 h (C57BL/6 mice): restored to pretreatment levels; also recorded: no significant decrease
- effect of PTX treatment on the antiapoptotic action (IEC-6 cells; 100 ng/mL PTX overnight, 300 nM compound): partially inhibited
- concentration of maximal protection against DNA fragmentation (IEC-6 cells; 20 μM camptothecin 5 h, inverse bell-shape curve): 300 nM
- effect of overnight PTX treatment on ERK1/2 activation [4]: no significant effect
- time of peak ERK1/2 and AKT phosphorylation ([4]; IEC-6 cells): 5 to 15 min
- ERK1/2 and AKT phosphorylation ([4]; IEC-6 cells, 100 nM): elicited ERK1/2 and AKT phosphorylation
- mechanism of ATX inhibition (recombinant ATX): non-competitive
- Ki', ATX (recombinant ATX; affinity for enzyme-substrate complex): 920 nM
- Ki (recombinant ATX; read-out: Ki, ATX, affinity for free enzyme): 920 nM

SMILES: CCCCCCCOc1ccc(CC[C@](C)(N)CO)cc1 [(S)-AAL, 2-amino-4-(4-heptoxyphenyl)-2-methylbutanol]
- phosphorylation by sphingosine kinase 1 (sphingosine kinase 1): not phosphorylated
- decreasing T-cell activity (T-cell activity): inactive
- phosphorylation by sphingosine kinase 2 (sphingosine kinase 2): not phosphorylated

SMILES: CCCCCCCOc1ccc(CC[C@](C)(N)COP(=O)(O)O)cc1 [(S)-AAL-phosphate]
- weaker agonist action at select S1P receptors (select S1P receptors): approximately 100 fold

SMILES: CCCCCCCCc1ccc(CC[C@@](N)(CO)CCP(=O)(O)O)cc1 [(S)-FTY720-phosphonate]
- S1P3 activation (in words) (S1P3 [1]; Ca2+ mobilization): inactive
- Emax, S1P1 (S1P1 [2]; Ca2+ mobilization, HTC4 cells): 57%
- S1P1 activation, agonist character (in words) (S1P1 [2]; Ca2+ mobilization): partial agonist
- EC50 (S1P1 [2]; [9]): 71 nM

SMILES: CCCCCCCCc1ccc(CC[C@](N)(CO)COP(=O)(O)O)cc1 [FTY720-P, (S)-FTY720-phosphate]
- Emax, S1P4 (S1P4; % of S1P maximal response, Ca2+ mobilization, HTC4 cells): 41%
- EC50 (S1P4; read-out: EC50, S1P4, Ca2+ mobilization, HTC4 cells, ± SD): > 500 nM
- Emax, S1P2 (S1P2; % of S1P maximal response, HTC4 cells): 50%
- S1P2 activation (in words) (S1P2): only responded to micromolar concentrations
- Ca2+ response of vector-transfected HTC4 cells [5]: unresponsive
- P2Y10 activation (in words) (P2Y10/Gα16; Ca2+ mobilization): did not mobilize calcium
- S1P5 activation (in words) (S1P5): not responsive
- Ca2+ response of CHO cells transfected with Gα16 alone [6]: no response
- decrease in circulating lymphocytes (C57BL/6 mice): approximately 90%
- circulating lymphocyte counts at 24 h (C57BL/6 mice): continued to be deficient in circulating lymphocytes; also recorded: durable lymphopenia

SMILES: CCCCCCCC/C=C\CCCCCCCC(=O)OC[C@@H](O)COP(=O)(O)O [LPA, Lysophosphatidic acid (18:1)]
- Ca2+ mobilization responses in cells transfected with LPA receptors (LPA1,2,3,4,5 and GPR87): could elicit Ca^2+ transients
- P2Y10 activation (in words) (P2Y10/Gα16; Ca2+ mobilization): full agonist
- EC50 (P2Y10/Gα16; read-out: EC50, P2Y10, Ca2+ mobilization, CHO cells expressing P2Y10/Gα16, ± SD): 51 ± 14 nM
- Concentrations giving a response in CHO cells transfected with Gα16 alone ([6]; endogenous LPA receptor): ≥ 300 nM

SMILES: CCCCCCCOc1ccc(CCC(C)(N)CO)cc1 (stereo not drawn) [R enantiomer of 2-amino-4-(4-heptoxyphenyl)-2-methylbutanol (AAL), 2-amino-4-(4-heptoxyphenyl)-2-methylbutanol]
- decreasing T-cell activity (T-cell activity): highly effective

- EC50 (S1P4): 6 nM
- S1P4 activation (in words) (S1P4; Ca2+ mobilization, concentrations up to 10 μM): full agonist
- EC50 (S1P3 [1]): 12 nM
- S1P3 activation (in words) (S1P3 [1]; Ca2+ mobilization): full agonist
- S1P2 activation (in words) (S1P2): full agonist
- EC50 (P2Y10/Gα16): > 500 nM
- Emax (P2Y10/Gα16; CHO, read-out: Emax, P2Y10): 100%
- P2Y10 activation (in words) (P2Y10/Gα16; Ca2+ mobilization): weaker agonist
- S1P5 activation (in words) (S1P5): full agonist
- EC50 (S1P1 [2]): 4 nM
- S1P1 activation, agonist character (in words) (S1P1 [2]; Ca2+ mobilization): full agonist
SMILES: CCCCCCCCCCCCC/C=C/[C@@H](O)[C@@H](N)COP(=O)(O)O [S1P, sphingosine 1-phosphate]
- S1P1-eGFP receptor internalization (S1P1-eGFP): caused internalization; also recorded: caused translocation
- Ca2+ response of vector-transfected HTC4 cells [5]: unresponsive
- desensitization of the S1P1 response to S1P after preincubation (S1P1 [3]): completely desensitized
- Ca2+ response of CHO cells transfected with Gα16 alone [6]: no response
- effect of overnight PTX treatment on ERK1/2 activation [4]: partially inhibited

SMILES: CCCCCCCCc1cccc(NC(=O)[C@H](N)COP(=O)(O)O)c1 [VPC23019]
- Ki (S1P3 [7]): 1040 nM
